Key:
h5-HT transporter = target: T1, h5-HT transporter (Homo sapiens, UniProt P31645); test: Radioligand binding experiment for 5-HT transporter ([3H]paroxetine); conditions: human platelet membranes; [3H]paroxetine 0.5 nM; read-out: 5-HTT (converted)
T1 construct: Human platelet membranes (Oceanix Biosciences Corporation, Hanover, Md., USA) were thawed; tissue Oceanix Biosciences Corporation; host or cells: human platelet membranes
Protocol: (§1) The interaction of the compounds of Formula (I) with hα2-receptors and h5-HT-transporters was assessed in in vitro radioligand binding experiments. In general, a low concentration of a radioligand with a high binding affinity for a particular receptor or transporter is incubated with a sample of a tissue preparation enriched in a particular receptor or transporter or with a preparation of cells expressing cloned human receptors in a buffered medium. During the incubation, the radioligand binds to the receptor or transporter. When equilibrium of binding is reached, the receptor bound radioactivity is separated from the non-bound radioactivity, and the receptor- or transporter-bound activity is counted. The interaction of the test compounds with the receptor is assessed in competition binding experiments. Various concentrations of the test compound are added to the incubation mixture containing the receptor- or transporter preparation and the radioligand. The test compound in proportion to its binding affinity and its concentration inhibits binding of the radioligand. The radioligand used for hα2A, hα2B and hα2C receptor binding was [^3H]-raulwolscine and for the h5-HT transporter was [^3H]paroxetine.
Human platelet membranes (Oceanix Biosciences Corporation, Hanover, Md., USA) were thawed, diluted in buffer (Tris-HCl 50 mM, 120 mM NaCl and 5 mM KCl) and quickly (max 3 s) homogenised with an Ultraturrax homogenizer. In a total volume of 250 μL, 50-100 μg protein was incubated with [^3H]paroxetine (NET-869) (New England Nuclear, USA) (0.5 nM final concentration) with or without competitor for 60 min at 25° C. Incubation was stopped by rapid filtration of the incubation mixture over GF/B filters, pre-wetted with 0.1% polyethyleneamine, using a Filtermate 196 harvester (Packard, Meriden, Conn.). Filters were rinsed extensively with ice-cold buffer and radioactivity on the filters was counted in a Topcount liquid scintillation counter (Packard, Meriden, Conn.). Data were expressed as cpm. Imipramine (at 1 μM final concentration) was used to determine the non-specific binding.
(§2) Data from assays in the presence of compound were calculated as a percentage of total binding measured in the absence of test compound. Inhibition curves, plotting percent of total binding versus the log value of the concentration of the test compound, were automatically generated, and sigmoidal inhibition curves were fitted using non-linear regression. The pIC50 values of test compounds were derived from individual curves. All compounds according to Formula (I) produced an inhibition at least at the hα2A site (but often also at the hα2B and hα2C sites) and simultaneously at the 5-HT transporter site of more than 50% (PIC50) at a test concentration ranging between 10^−6 M and 10^−9 M in a concentration-dependent manner.

hα2B receptor = target: T2, hα2B receptor (Homo sapiens, UniProt P18089); test: Radioligand binding experiment for α2B-adrenergic receptor ([3H]-raulwolscine); conditions: membranes of CHO cells transfected with human α2B receptor; [3H]raulwolscine 1 nM
T2 construct: expressed in transfected cells
T2 sequence (P18089 1-450): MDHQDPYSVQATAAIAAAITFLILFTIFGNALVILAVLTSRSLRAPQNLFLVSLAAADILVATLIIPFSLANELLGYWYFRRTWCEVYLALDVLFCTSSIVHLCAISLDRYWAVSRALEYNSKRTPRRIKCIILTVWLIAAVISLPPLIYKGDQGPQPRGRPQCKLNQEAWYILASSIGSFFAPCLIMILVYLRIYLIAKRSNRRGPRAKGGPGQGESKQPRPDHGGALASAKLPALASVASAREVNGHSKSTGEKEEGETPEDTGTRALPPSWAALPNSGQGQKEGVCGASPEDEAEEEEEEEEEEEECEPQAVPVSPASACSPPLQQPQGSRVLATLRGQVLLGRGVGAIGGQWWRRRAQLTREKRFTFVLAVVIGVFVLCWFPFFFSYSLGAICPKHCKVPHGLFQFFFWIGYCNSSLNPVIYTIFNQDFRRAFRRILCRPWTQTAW
Protocol: as §1
(§3) CHO cells, stabile transfected with human adrenergic-α2A-, -α2B or α2C receptor cDNA, were cultured in Dulbecco's Modified Eagle's Medium (DMEM)/Nutrient mixture Ham's F12 (ratio 1:1) (Gibco, Gent-Belgium) supplemented with 10% heat inactivated fetal calf serum (Life Technologies, Merelbeke-Belgium) and antibiotics (100 IU/ml penicillin G, 100 μg/ml streptomycin sulphate, 110 μg/ml pyruvic acid and 100 μg/ml L-glutamine). One day before collection, cells were induced with 5 mM sodiumbutyrate. Upon 80-90% of confluence, cells were scraped in phosphate buffered saline without Ca^2+ and Mg^2+ and collected by centrifugation at 1500×g for 10 min. The cells were homogenised in Tris-HCl 50 mM using an Ultraturrax homogenizer and centrifuged for 10 min at 23,500×g. The pellet was washed once by resuspension and rehomogenization and the final pellet was resuspended in Tris-HCl, divided in 1 ml aliquots and stored at −70° C.
(§4) Membranes were thawed and re-homogenized in incubation buffer (glycylglycine 25 mM, pH 8.0). In a total volume of 500 μl, 2-10 μg protein was incubated with [^3H]raulwolscine (NET-722) (New England Nuclear, USA) (1 nM final concentration) with or without competitor for 60 min at 25° C. followed by rapid filtration over GF/B filter using a Filtermate 196 harvester (Packard, Meriden, Conn.). Filters were rinsed extensively with ice-cold rinsing buffer (Tris-HCl 50 mM pH 7.4). Filter-bound radioactivity was determined by scintillation counting in a Topcount (Packard, Meriden, Conn.) and results were expressed as counts per minute (cpm). Non-specific binding was determined in the presence of 1 μM oxymetazoline for hα2A- and hα2B-receptors and 1 μM spiroxatrine for hα2C receptors.
as §2

hα2C receptor = target: T3, hα2C receptor (Homo sapiens, UniProt P18825); test: Radioligand binding experiment for α2C-adrenergic receptor ([3H]-raulwolscine); conditions: membranes of CHO cells transfected with human α2C receptor; [3H]raulwolscine 1 nM
T3 construct: expressed in transfected cells
T3 sequence (P18825 1-462): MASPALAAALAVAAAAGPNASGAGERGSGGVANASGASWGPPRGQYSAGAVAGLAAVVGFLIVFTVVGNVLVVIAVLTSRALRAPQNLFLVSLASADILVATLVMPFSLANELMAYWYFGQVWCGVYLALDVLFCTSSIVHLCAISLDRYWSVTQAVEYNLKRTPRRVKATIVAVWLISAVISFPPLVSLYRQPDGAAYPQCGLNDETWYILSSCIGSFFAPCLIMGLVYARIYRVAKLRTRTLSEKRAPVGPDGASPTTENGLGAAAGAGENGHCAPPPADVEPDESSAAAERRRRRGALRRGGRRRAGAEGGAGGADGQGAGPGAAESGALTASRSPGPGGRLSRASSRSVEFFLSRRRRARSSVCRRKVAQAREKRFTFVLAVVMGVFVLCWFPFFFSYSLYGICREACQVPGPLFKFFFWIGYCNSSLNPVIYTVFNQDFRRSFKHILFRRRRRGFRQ
Protocol: as §1, §3, §4, §2

hα2A receptor = target: T4, hα2A receptor (Homo sapiens, UniProt P08913); test: Radioligand binding experiment for α2A-adrenergic receptor ([3H]-raulwolscine); conditions: membranes of CHO cells transfected with human α2A receptor; [3H]raulwolscine 1 nM
T4 construct: expressed in transfected cells
T4 sequence (P08913 1-465): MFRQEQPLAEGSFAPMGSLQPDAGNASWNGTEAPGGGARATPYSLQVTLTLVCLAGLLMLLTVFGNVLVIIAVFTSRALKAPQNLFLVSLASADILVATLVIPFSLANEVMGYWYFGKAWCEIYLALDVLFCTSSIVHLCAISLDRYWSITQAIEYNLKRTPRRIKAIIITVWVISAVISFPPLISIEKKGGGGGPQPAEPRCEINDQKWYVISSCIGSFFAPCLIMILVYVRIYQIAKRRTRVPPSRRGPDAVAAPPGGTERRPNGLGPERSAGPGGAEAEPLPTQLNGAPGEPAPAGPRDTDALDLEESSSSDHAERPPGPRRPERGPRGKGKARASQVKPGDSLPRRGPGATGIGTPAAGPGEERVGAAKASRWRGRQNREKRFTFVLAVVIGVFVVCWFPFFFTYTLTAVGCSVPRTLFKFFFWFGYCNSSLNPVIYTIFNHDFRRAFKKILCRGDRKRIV
Protocol: as §1, §3, §4, §2

T1 sequence (P31645 whole entry): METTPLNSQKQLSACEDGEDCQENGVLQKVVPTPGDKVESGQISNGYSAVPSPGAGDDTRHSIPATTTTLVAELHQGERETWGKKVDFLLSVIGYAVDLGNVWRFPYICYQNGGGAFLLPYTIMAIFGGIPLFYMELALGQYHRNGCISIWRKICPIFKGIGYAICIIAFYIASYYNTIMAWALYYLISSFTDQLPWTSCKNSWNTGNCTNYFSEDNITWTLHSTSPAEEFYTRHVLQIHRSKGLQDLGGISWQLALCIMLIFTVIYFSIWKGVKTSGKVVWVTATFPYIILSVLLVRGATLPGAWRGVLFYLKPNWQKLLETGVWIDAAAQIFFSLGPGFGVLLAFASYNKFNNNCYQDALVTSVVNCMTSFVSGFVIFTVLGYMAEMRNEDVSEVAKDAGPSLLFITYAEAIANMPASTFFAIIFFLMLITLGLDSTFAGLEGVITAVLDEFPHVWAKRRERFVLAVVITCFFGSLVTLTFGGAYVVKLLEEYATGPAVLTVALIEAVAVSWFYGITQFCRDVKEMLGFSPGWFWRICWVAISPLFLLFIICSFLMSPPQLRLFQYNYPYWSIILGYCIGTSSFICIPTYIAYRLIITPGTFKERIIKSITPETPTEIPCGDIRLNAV

SMILES | IC50 (h5-HT transporter) | IC50 (hα2B receptor) | IC50 (hα2C receptor) | IC50 (hα2A receptor)
COCC(=O)OCCOc1cccc2c1OCC1C2=NOC1CN1CCN(CC(C)=Cc2ccccc2)CC1 (single isomer, unassigned) [Compound 25] | 316 nM | 1.58 nM | 2 nM | 39.8 nM
CC(=Cc1ccccc1)CN1CCN(CC2ON=C3c4cccc(NCCN5CCCC5)c4OCC32)CC1 (stereo not drawn) [Compound 16] | 25.1 nM | 3.98 nM | 7.94 nM | 39.8 nM
COc1cc2c(c(C#N)c1OC)OCC1C2=NOC1CN1CCN(CC(C)=Cc2ccc(F)cc2)CC1 (stereo not drawn) [Compound 19] | 126 nM | 20 nM | 15.8 nM | 10 nM
C/C(=C\c1ccccc1)CN1CCN(C[C@@H]2ON=C3c4cccc(O)c4OC[C@H]32)CC1 (relative stereo) [Compound 7, 3-[4-(2-methyl-3-phenyl-allyl)-piperazin-1-ylmethyl]-3a,4-dihydro-3H-chromeno[4,3-c]isoxazol-6-ol] | 50.1 nM | 1.26 nM | 2 nM | 7.94 nM

Now from value to compound:

IC50 (h5-HT transporter) | IC50 (hα2B receptor) | IC50 (hα2C receptor) | IC50 (hα2A receptor) | SMILES
398 nM | 15.8 nM | 6.31 nM | 63.1 nM | COc1cc2c(c(Nc3ccncc3)c1OC)OC[C@@H]1C2=NO[C@H]1CN1CCN(C/C(C)=C/c2ccc(F)cc2)CC1 (relative stereo) [Compound 21, (3-{4-[3-(4-fluoro-phenyl)-2-methyl-allyl]-piperazin-1-ylmethyl}-7,8-dimethoxy-3a,4-dihydro-3H-chromeno [4,3-c]isoxazol-6-yl)-pyridin-4-yl-amine]
126 nM | 50.1 nM | 20 nM | 63.1 nM | CC(=Cc1ccccc1)CN1CCN(CC2ON=C3c4cccc(NCc5ccccc5)c4OCC32)CC1 (stereo not drawn) [Compound 23]
